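Interpolation was linear, between the two tested concentrations surrounding the appropriate level; five concentrations were tested over 48 hours in 96-well plates. GI50 marks 50% less growth.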 Calls of active or inactive are those of the source. No stated cut-off is given here; in the data, active = GI50 up to about 1.1 µM and inactive = higher.
Columns and labels:
Test in all cases: NCI tumour cell line growth inhibition, 48 h
[1] = test system: MCF7
[2] = test system: CAKI-1
[3] = test system: T47D
[4] = test system: M14
[5] = test system: HT-29
[6] = test system: UACC-257
[7] = test system: DU-145
[8] = test system: NCI-H226
[9] = test system: BT-549
[10] = test system: OVCAR-8
[11] = test system: COLO 205
[12] = test system: NCI-H23
[13] = test system: OVCAR-5
[14] = test system: SK-OV-3
[15] = test system: A498
[16] = test system: MOLT-4
[17] = test system: SF-268
[18] = test system: NCI/ADR-RES
[19] = test system: NCI-H522

Measured: GI50

CCN(CC)C(=O)Cn1c2ccccc2[n+]2cc(N)ccc12
inactive: [1] > 100 µM | [2] > 100 µM | [3] > 100 µM | [4] > 100 µM | [5] > 100 µM | [6] > 100 µM | [7] > 100 µM | [8] > 100 µM | [9] > 100 µM | [10] > 100 µM | [11] > 100 µM | [12] > 100 µM | [13] > 100 µM | [14] > 100 µM | [15] > 100 µM | [16] > 100 µM | [17] > 100 µM | [18] > 100 µM

Cn1c(=O)c2[nH]c(-n3nc(-c4ccccc4)cc3N)nc2n(C)c1=O
inactive: [1] 13.8 µM | [2] 2.12 µM | [3] 11.3 µM | [4] 10.5 µM | [5] 4.15 µM | [7] 7.93 µM | [8] 5.55 µM | [9] 14.5 µM | [10] 4.85 µM | [11] 7.05 µM | [13] 21.3 µM | [14] 4.04 µM | [15] 11.1 µM | [16] 7.14 µM | [17] 11.3 µM | [18] 2.4 µM

COc1ccc(NC(C)=O)cc1N1C(=O)/C(=C\c2cccc(Oc3ccccc3)c2)SC1c1ccccc1 (configuration not stated)
inactive: [1] 23.8 µM | [2] 28.4 µM | [3] 23.4 µM | [4] 34.1 µM | [5] 18.3 µM | [6] 40.6 µM | [7] 35.3 µM | [8] 82.2 µM | [19] 28.4 µM | [9] 30.5 µM | [10] 22.5 µM | [11] 19.4 µM | [12] 46 µM | [13] 29.3 µM | [14] 49 µM | [15] 56.4 µM | [16] 10.1 µM | [18] 19.2 µM

Cc1cc(C)c(C#N)c(SC(=S)NC(=O)c2ccc(Cl)cc2)n1
inactive: [1] > 100 µM | [2] > 100 µM | [3] > 100 µM | [4] > 100 µM | [6] > 100 µM | [7] > 100 µM | [9] > 100 µM | [10] > 100 µM | [11] > 100 µM | [12] > 100 µM | [13] > 100 µM | [14] > 100 µM | [15] > 100 µM | [17] > 100 µM | [18] > 100 µM

COC(=O)[C@@H]1C[C@]2(CC=C(C)C)c3ccccc3N(S(=O)(=O)c3ccccc3)[C@@H]2N1C(=O)OC
inactive: [1] 8.87 µM | [2] 27.2 µM | [3] 5.94 µM | [5] 23.5 µM | [6] 10.7 µM | [7] > 100 µM | [8] 19 µM | [19] 10.3 µM | [9] 32.2 µM | [10] 20.3 µM | [11] 28.2 µM | [12] > 100 µM | [13] > 100 µM | [14] 10.6 µM | [16] 8.2 µM | [17] 18 µM | [18] 10.4 µM

Cc1cn(C2CC(Br)C(COC(c3ccccc3)(c3ccccc3)c3ccccc3)O2)c(=O)[nH]c1=O (configuration not stated)
inactive: [1] 10 µM | [2] 15.1 µM | [3] 12.3 µM | [4] 13.2 µM | [5] 10.9 µM | [6] 16.1 µM | [7] 14.5 µM | [8] 19.2 µM | [19] 7.24 µM | [9] 12 µM | [10] 10.9 µM | [11] 14 µM | [12] 7.4 µM | [13] 16.6 µM | [15] 15.3 µM | [16] 8.17 µM | [17] 13.8 µM | [18] 13.7 µM

N#CCc1nc(-c2cc3ccccc3oc2=O)cs1
inactive: [1] 54.8 µM | [2] > 100 µM | [3] 40.1 µM | [4] 35.6 µM | [5] 54 µM | [6] 27.1 µM | [7] > 100 µM | [8] 36.8 µM | [19] 15.9 µM | [9] 17.9 µM | [10] 63.2 µM | [11] 67.3 µM | [13] > 100 µM | [14] > 100 µM | [16] 16.6 µM | [17] > 100 µM | [18] 79.6 µM

O=[N+]([O-])c1ccc2nnnn2c1
inactive: [1] 24 µM | [2] 17.6 µM | [3] > 100 µM | [4] 13.8 µM | [5] 16.5 µM | [6] 27.8 µM | [7] 37.2 µM | [8] 12.3 µM | [19] 3.39 µM | [9] 23.3 µM | [10] 44.1 µM | [11] 23.9 µM | [12] 22.6 µM | [13] 41.4 µM | [14] 42.6 µM | [16] 2.62 µM | [17] 70.6 µM | [18] 25.5 µM

Source: ChEMBL document CHEMBL1201862, “PubChem BioAssay data set” (2004)
